According to ChEMBL document CHEMBL1137935 (Bioorg Med Chem Lett, 2004):
Values belong to the compound of their own block, whether it stands above or below them. Activity calls are given as the source filed them. The rule behind the calls is not given here.

Tests used:
[1] = target: T1, Adenosine receptor A1 (Cavia porcellus) (UniProt P47745)
T1 sequence (whole entry): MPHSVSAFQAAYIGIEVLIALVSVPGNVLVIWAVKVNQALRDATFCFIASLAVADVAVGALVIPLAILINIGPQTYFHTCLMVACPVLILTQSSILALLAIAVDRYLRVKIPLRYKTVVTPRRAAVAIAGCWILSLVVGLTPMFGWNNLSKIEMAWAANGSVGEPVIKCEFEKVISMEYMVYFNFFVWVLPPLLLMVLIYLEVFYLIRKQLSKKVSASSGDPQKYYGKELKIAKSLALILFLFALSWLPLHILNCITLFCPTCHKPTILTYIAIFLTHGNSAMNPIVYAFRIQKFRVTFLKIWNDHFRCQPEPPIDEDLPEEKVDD

[2] = target: T1, Adenosine receptor A1 (Cavia porcellus); remark: listed apart in the source
[3] = target: T1, Adenosine receptor A1 (Cavia porcellus); assay: Binding affinity against […] using [35S]GTP-gamma-S, radioligand in guinea pig.; type: functional
[4] = target: T1, Adenosine receptor A1 (Cavia porcellus); assay: Binding affinity against adenosine A1 receptor using [3H]CPX in guinea pig DDT membrane; type: cell membranes
[5] = target: T1, Adenosine receptor A1 (Cavia porcellus); assay: Binding affinity against adenosine A1 receptor using [3H]CCPA in guinea pig DDT membrane; 7.5+/-1.9
[6] = target: T1, Adenosine receptor A1 (Cavia porcellus); assay: Binding affinity against adenosine A1 receptor using [3H]CPX in guinea pig DDT membrane; 343+/-137
[7] = target: T1, Adenosine receptor A1 (Cavia porcellus); assay: Binding affinity against adenosine A1 receptor using [3H]CPX in guinea pig DDT membrane; 1666+/-556
[8] = target: T1, Adenosine receptor A1 (Cavia porcellus); assay: Binding affinity against adenosine A1 receptor using [3H]CCPA in guinea pig DDT membrane; 96+/-11
[9] = target: T1, Adenosine receptor A1 (Cavia porcellus); assay: Binding affinity against adenosine A1 receptor using [3H]CPX in guinea pig DDT membrane; 338+/-98
[10] = target: T1, Adenosine receptor A1 (Cavia porcellus); remark: listed apart in the source
[11] = target: T1, Adenosine receptor A1 (Cavia porcellus); assay: Binding affinity against adenosine A1 receptor using [3H]CPX in guinea pig DDT membrane; 166+/-75
[12] = target: T1, Adenosine receptor A1 (Cavia porcellus); assay: Binding affinity against adenosine A1 receptor using [3H]CCPA in guinea pig DDT membrane; 0.93+/-0.92
[13] = target: T1, Adenosine receptor A1 (Cavia porcellus); assay: Binding affinity against adenosine A1 receptor using [3H]CCPA in guinea pig DDT membrane; 971+/-139
[14] = target: T1, Adenosine receptor A1 (Cavia porcellus); assay: Binding affinity against adenosine A1 receptor using [3H]CPX in guinea pig DDT membrane; 5497+/-180
[15] = target: T1, Adenosine receptor A1 (Cavia porcellus); assay: Binding affinity against adenosine A1 receptor using [3H]-CPX in guinea pig DDT membrane; 4191+/-922
[16] = target: T1, Adenosine receptor A1 (Cavia porcellus); assay: Binding affinity against adenosine A1 receptor using [3H]CPX in guinea pig DDT membrane; 5855+/-1208
[17] = target: T1, Adenosine receptor A1 (Cavia porcellus); assay: Binding affinity against adenosine A1 receptor using [3H]CCPA in guinea pig DDT membrane; 243+/-107
[18] = tested on: Adenosine receptor A1 (Cavia porcellus); assay: Binding affinity against […] using [35S]GTP-gamma-S, in guinea pig; not active
[19] = target: T1, Adenosine receptor A1 (Cavia porcellus); remark: listed apart in the source
[20] = target: T1, Adenosine receptor A1 (Cavia porcellus); assay: Binding affinity against adenosine A1 receptor using [3H]CCPA in guinea pig DDT membrane; type: cell membranes
[21] = target: T1, Adenosine receptor A1 (Cavia porcellus); assay: Binding affinity against adenosine A1 receptor using [3H]CPX in guinea pig DDT membrane; 354+/-113
[22] = target: T1, Adenosine receptor A1 (Cavia porcellus); remark: listed apart in the source
[23] = target: T1, Adenosine receptor A1 (Cavia porcellus); assay: Binding affinity against adenosine A1 receptor using [3H]CPX in guinea pig DDT membrane; 1945+/-1316
[24] = target: T1, Adenosine receptor A1 (Cavia porcellus); assay: Binding affinity against adenosine A1 receptor using [3H]CPX in guinea pig DDT membrane; 158+/-21
[25] = target: T1, Adenosine receptor A1 (Cavia porcellus); assay: Binding affinity against adenosine A1 receptor using [3H]CCPA in guinea pig DDT membrane; 21+/-0
[26] = target: T1, Adenosine receptor A1 (Cavia porcellus); remark: listed apart in the source
[27] = target: T1, Adenosine receptor A1 (Cavia porcellus); assay: Binding affinity against adenosine A1 receptor using [3H]CCPA in guinea pig DDT membrane; 160+/-41
[28] = target: T1, Adenosine receptor A1 (Cavia porcellus); assay: Binding affinity against adenosine A1 receptor using [3H]CPX in guinea pig DDT membrane; 1143+/-426
[29] = target: T1, Adenosine receptor A1 (Cavia porcellus); assay: Binding affinity against adenosine A1 receptor using [3H]CPX in guinea pig DDT membrane; 6250+/-1767
[30] = target: T1, Adenosine receptor A1 (Cavia porcellus); assay: Binding affinity against adenosine A1 receptor using [3H]CCPA in guinea pig DDT membrane; 2400+/-16
[31] = target: T1, Adenosine receptor A1 (Cavia porcellus); assay: Binding affinity against adenosine A1 receptor using [3H]CPX in guinea pig DDT membrane; 400+/-38
[32] = target: T1, Adenosine receptor A1 (Cavia porcellus); assay: Binding affinity against adenosine A1 receptor using [3H]CPX in guinea pig DDT membrane; 1571+/-245
[33] = target: T1, Adenosine receptor A1 (Cavia porcellus); assay: Binding affinity against adenosine A1 receptor using [3H]-CCPA in guinea pig DDT membrane; 180+/-23
[34] = target: T1, Adenosine receptor A1 (Cavia porcellus); remark: listed apart in the source
[35] = target: T1, Adenosine receptor A1 (Cavia porcellus); remark: listed apart in the source
[36] = target: T1, Adenosine receptor A1 (Cavia porcellus); assay: Binding affinity against adenosine A1 receptor using [3H]CPX in guinea pig DDT membrane; 614+/-78
[37] = target: T1, Adenosine receptor A1 (Cavia porcellus); assay: Binding affinity against adenosine A1 receptor using [3H]CCPA in guinea pig DDT membrane; 102+/-45
[38] = target: T1, Adenosine receptor A1 (Cavia porcellus); assay: Binding affinity against adenosine A1 receptor using [3H]CCPA in guinea pig DDT membrane; 2.73+/-0.49
[39] = target: T1, Adenosine receptor A1 (Cavia porcellus); assay: Binding affinity against adenosine A1 receptor using [3H]CPX in guinea pig DDT membrane; 503+/-262
[40] = target: T1, Adenosine receptor A1 (Cavia porcellus); assay: Binding affinity against adenosine A1 receptor using [3H]CPX in guinea pig DDT membrane; 473+/-329
[41] = target: T1, Adenosine receptor A1 (Cavia porcellus); assay: Binding affinity against adenosine A1 receptor using [3H]CPX in guinea pig DDT membrane; 913+/-517

Structure (SMILES): CNC(=O)OC[C@H]1OC(n2cnc3c(NC4CCOC4)ncnc32)[C@H](O)C1O (single isomer, unassigned)
Ki high [1]: 167 nM
Ki low [2]: 3610 nM

Structure (SMILES): Cc1csc(SC[C@H]2OC(n3cnc4c(NC5CCOC5)ncnc43)[C@H](O)C2O)n1 (single isomer, unassigned)
efficacy relative to CPA [3]: 86%
Ki low [4]: > 5000 nM

Structure (SMILES): OC1[C@@H](O)C(n2cnc3c(NC4CCOC4)ncnc32)O[C@@H]1COCc1ccccc1 (single isomer, unassigned)
efficacy relative to CPA [3]: 98%
Ki high [5]: 7.5 nM
Ki low [4]: 165 nM

Structure (SMILES): COc1ccc2nc(SC[C@H]3OC(n4cnc5c(NC6CCCC6)ncnc54)[C@H](O)[C@@H]3O)sc2c1 (some centres undefined)
Ki low [7]: 1670 nM
efficacy relative to CPA [3]: 105%

Structure (SMILES): O[C@@H]1[C@@H](CSc2nc3ccccc3s2)OC(n2cnc3c(NC4CCCC4)ncnc32)[C@@H]1O (some centres undefined)
Ki low [10]: 1770 nM
efficacy relative to CPA [3]: 95%

Structure (SMILES): O[C@@H]1[C@@H](CSc2nccs2)OC(n2cnc3c(NC4CCCC4)ncnc32)[C@@H]1O (some centres undefined)
Ki low [11]: 166 nM
Ki high [12]: 0.93 nM
efficacy relative to CPA [3]: 105%

Structure (SMILES): Cn1ccnc1SC[C@H]1OC(n2cnc3c(NC4CCOC4)ncnc32)[C@H](O)C1O (single isomer, unassigned)
Ki low [15]: 4190 nM
efficacy relative to CPA [3]: 84%

Structure (SMILES): O[C@@H]1[C@@H](COc2ccccc2F)OC(n2cnc3c(NC4CCCC4)ncnc32)[C@@H]1O (some centres undefined)
CPA [18]: inactive
Ki low [4]: 4390 nM

Structure (SMILES): Cn1ccnc1SC[C@H]1OC(n2cnc3c(NC4CCCC4)ncnc32)[C@H](O)[C@@H]1O (some centres undefined)
efficacy relative to CPA [3]: 112%
Ki low [4]: 1340 nM

Structure (SMILES): COc1ccc2sc(SC[C@H]3OC(n4cnc5c(NC6CCCC6)ncnc54)[C@H](O)[C@@H]3O)nc2c1 (some centres undefined)
Ki high [20]: 222 nM
efficacy relative to CPA [3]: 94%
Ki low [21]: 354 nM

Structure (SMILES): OC[C@H]1O[C@@H](n2cnc3c(NC4CCCC4)ncnc32)[C@H](O)[C@@H]1O
Ki high [20]: 0.8 nM
efficacy relative to CPA [3]: 100%
Ki low [22]: 19.5 nM

Structure (SMILES): O[C@@H]1[C@@H](CSc2ccccc2F)OC(n2cnc3c(NC4CCCC4)ncnc32)[C@@H]1O (some centres undefined)
Ki high [20]: 33 nM
Ki low [26]: 287 nM
efficacy relative to CPA [3]: 90%

Structure (SMILES): OC[C@H]1O[C@@H](n2cnc3c(N[C@@H]4CCOC4)ncnc32)[C@H](O)C1O (single isomer, unassigned)
Ki high [34]: 3.25 nM
Ki low [35]: 543 nM

Structure (SMILES): Cc1cc(COC[C@H]2OC(n3cnc4c(NC5CCOC5)ncnc43)[C@H](O)C2O)no1 (single isomer, unassigned)
Ki high [38]: 2.73 nM
efficacy relative to CPA [3]: 84%
Ki low [4]: 192 nM

Structure (SMILES): Cc1ccccc1OC[C@H]1OC(n2cnc3c(NC4CCOC4)ncnc32)[C@H](O)C1O (single isomer, unassigned)
Ki low [39]: 503 nM
efficacy relative to CPA [3]: 61%

Structure (SMILES): OC1[C@@H](O)C(n2cnc3c(NC4CCOC4)ncnc32)O[C@@H]1COc1ccccc1Cl (single isomer, unassigned)
efficacy relative to CPA [3]: 62%
Ki low [40]: 473 nM

Results, then the compound that gave them:

efficacy relative to CPA [3]: 71%
Ki low [6]: 343 nM
Structure (SMILES): OC1[C@@H](O)C(n2cnc3c(NC4CCOC4)ncnc32)O[C@@H]1COc1ccc(F)cc1 (single isomer, unassigned)

efficacy relative to CPA [3]: 74%
Ki high [8]: 96 nM
Ki low [9]: 338 nM
Structure (SMILES): OC1[C@@H](O)C(n2cnc3c(NC4CCOC4)ncnc32)O[C@@H]1CSc1ccccc1Cl (single isomer, unassigned)

Ki high [13]: 971 nM
efficacy relative to CPA [3]: 86%
Ki low [14]: 5500 nM
Structure (SMILES): OC1[C@@H](O)[C@H](n2cnc3c(NC4CCOC4)ncnc32)O[C@@H]1CSc1ccc(F)cc1F (single isomer, unassigned; 19)

efficacy relative to CPA [3]: 12%
Ki low [16]: 5860 nM
Ki high [17]: 243 nM
Structure (SMILES): Cc1cccc(C)c1SC[C@H]1OC(n2cnc3c(NC4CCOC4)ncnc32)[C@H](O)C1O (single isomer, unassigned)

Ki low [19]: 894 nM
efficacy relative to CPA [3]: 110%
Structure (SMILES): OC1[C@@H](O)C(n2cnc3c(NC4CCOC4)ncnc32)O[C@@H]1CSc1ccccn1 (single isomer, unassigned)

efficacy relative to CPA [3]: 99%
Ki low [23]: 1940 nM
Structure (SMILES): OC1[C@@H](O)C(n2cnc3c(NC4CCOC4)ncnc32)O[C@@H]1CSc1nc2ccc(Cl)cc2o1 (single isomer, unassigned)

Ki low [24]: 158 nM
efficacy relative to CPA [3]: 106%
Ki high [25]: 21 nM
Structure (SMILES): OC1[C@@H](O)C(n2cnc3c(NC4CCOC4)ncnc32)O[C@@H]1CSc1nccs1 (single isomer, unassigned)

efficacy relative to CPA [3]: 88%
Ki low [4]: 494 nM
Structure (SMILES): OC1[C@@H](O)[C@H](n2cnc3c(NC4CCOC4)ncnc32)O[C@@H]1CSc1ccc(F)cc1F (single isomer, unassigned; 26)

Ki high [27]: 160 nM
efficacy relative to CPA [3]: 81%
Ki low [28]: 1140 nM
Structure (SMILES): Cc1ccccc1SC[C@H]1OC(n2cnc3c(NC4CCOC4)ncnc32)[C@H](O)C1O (single isomer, unassigned)

CPA [18]: inactive
Ki low [29]: 6250 nM
Ki high [30]: 2400 nM
Structure (SMILES): OC1[C@@H](O)C(n2cnc3c(NC4CCOC4)ncnc32)O[C@@H]1CSc1ccccc1C(F)(F)F (single isomer, unassigned)

Ki low [31]: 400 nM
efficacy relative to CPA [3]: 100%
Structure (SMILES): OC1[C@@H](O)C(n2cnc3c(NC4CCOC4)ncnc32)O[C@@H]1CSc1nc2ccccc2s1 (single isomer, unassigned)

Ki low [32]: 1570 nM
efficacy relative to CPA [3]: 84%
Ki high [33]: 180 nM
Structure (SMILES): OC1[C@@H](O)C(n2cnc3c(NC4CCOC4)ncnc32)O[C@@H]1CSc1cccc(F)c1 (single isomer, unassigned)

Ki low [36]: 614 nM
efficacy relative to CPA [3]: 89%
Ki high [37]: 102 nM
Structure (SMILES): OC1[C@@H](O)C(n2cnc3c(NC4CCOC4)ncnc32)O[C@@H]1CSc1c(Cl)cccc1Cl (single isomer, unassigned)

efficacy relative to CPA [3]: 89%
Ki low [41]: 913 nM
Structure (SMILES): OC1[C@@H](O)C(n2cnc3c(NC4CCOC4)ncnc32)O[C@@H]1CSc1ncccn1 (single isomer, unassigned)
